{
  "source": "patent US20230266303A1",
  "about": "“SYSTEM” (GTINVENT LIMITED, priority 2020, published 2023)",
  "tested_on": "endogenous tau in dSH-SY5Y cells",
  "experiment": "Western blot of whole lysate and Triton X-100 sequential extraction of endogenous tau",
  "assay_type": "cell-based, human",
  "settings": "24 h",
  "experimental": "Cells were detached from the coverslip by incubation in 0.25% trypsin-EDTA (Gibco™) and then mixed with 5 ml culture media. The cells were harvested by centrifugation at 500×g for 5 minutes and the supernatant was discarded. The cell pellet was resuspended in ice-cold PBS and centrifuged at 500×g at 4° C. Cells were lysed in 1% Triton lysis buffer (1% Triton X-100 (v/v), 150 mM NaCl and 50 mM Tris-HCl, pH 7.6) containing Halt™ protease inhibitors (Thermo Scientific) and phosphatase inhibitors (Thermo Scientific) for 15 minutes on ice. The samples were centrifuged at 16,000×g for 30 minutes at 4° C., and the supernatant was collected (Triton-soluble fraction). The pellet was resuspended in SDS lysis buffer (1% SDS (w/v), 150 mM NaCl and 50 mM Tris-HCl, pH 7.6) containing protease and phosphatase inhibitors. The samples were centrifuged at 16,000×g for 30 minutes at room temperature and the supernatant was collected (Triton-insoluble fraction). Protein concentration in the Triton-soluble fractions were determined using the Pierce™ BCA Protein Assay Kit (Thermo Scientific) according to the manufacturer's instructions.\nFor cell lysates, Triton-soluble protein (20 μg) and an equal volume of Triton-insoluble protein were each mixed with Læmmli sample buffer (4×) (Bio-Rad Laboratories) containing 5% (v/v) […] and heated at 95° C. for 5 minutes. For recombinant protein, 3 μg was mixed with sample buffer without reducing agent or boiling. All samples were centrifuged for five minutes at 1000×g and samples were loaded onto 4-20% Mini-PROTEAN® precast gels (Bio-Rad Laboratories) and run at 120 V for 1 h in Tris-glycine running buffer (25 mM Tris, 192 mM glycine, pH 8.3), or until the sample buffer reached the end of the gel. For Coomassie staining, the gel was washed three times in double distilled water for five minutes and stained with Imperial™ protein stain (Thermo Scientific) for 1 h and then destained overnight in double distilled water. The stained gel was scanned using an HP Photosmart C5280 scanner. For western blotting, the separated proteins on the gel were transferred to nitrocellulose membrane (0.45 μm) at 200 mA for 90 minutes. The membranes were blocked in 5% (w/v) bovine serum albumin (BSA) in Tris-buffered saline (50 mM Tris-HCl, pH7.4, 150 mM NaCl) containing 0.1% (v/v) Tween-20 (TBS-T) for 1 h rocking at room temperature. Membranes were incubated with primary antibodies diluted in 5% BSA in TBS-T overnight at 4° C. The following primary antibodies and dilutions were used; Anti-Tau (polyclonal, total tau) (Thermo Scientific) (1:2500), AT180 (anti-pT231) (Thermo Scientific) (1:1000), AT8 (anti-pS202-T205) (1:1000) (Thermo Scientific), anti-GAPDH (1:5000) (Abcam). […] Immunoreactive protein bands were detected using ECL substrate (Clarity™, Bio-Rad) and X-ray films were scanned using an HP Photosmart C5280 scanner. FIJI was used to quantify the bands in arbitrary densitometry units. The density of bands corresponding to full-length tau (50-70 kDa) were determined and normalised against amount of GAPDH. […] For the quantification of Triton-insoluble and soluble protein, the proportion of tau in the insoluble and soluble fraction was calculated using the equations insoluble/(soluble+insoluble) or soluble/(soluble+insoluble), respectively and expressed as a percentage of the respective soluble or insoluble control value. […]",
  "key": {"[1]": {"settings": "whole lysate (RIPA), 1 μM soluble dGAE"}},
  "note": "Several values for one entry are separate records, joined by “and”; a condition that tells them apart may be missing. Equal values may be shown once. Entries after “also recorded” stand apart in the source; their conditions may differ.",
  "data": [
    {"substance": "dGAE: recombinant truncated tau, 95 residues fragment of Tau (2N4R), Ile-297 to Glu-391, SEQ ID NO: 4", "values": [
      {"measurement": "proportion of AT180 tau in Triton-X 100 insoluble fraction, percentage of buffer-treated controls", "setting": "soluble dGAE, buffer 100±0", "result": "139.4±14.54% and 139.4±14.5%"},
      {"measurement": "proportion of AT180 tau in Triton-X 100 soluble fraction, percentage of buffer-treated controls", "setting": "soluble dGAE, buffer 100±0", "result": "82.98±5.48% and 83.0±5.5%"},
      {"measurement": "AT8 immunoreactivity vs buffer-treated control (western blot)", "setting": "[1]", "result": "no significant difference; also recorded: marginal increases"},
      {"measurement": "AT180 immunoreactivity vs buffer-treated control (western blot)", "setting": "[1]", "result": "no significant difference; also recorded: marginal increases"},
      {"measurement": "total tau immunoreactivity vs buffer-treated control (western blot)", "setting": "[1]", "result": "no significant difference; also recorded: no change"}
    ]}
  ]
}
